# Test system: C2Cl2 myotubes
# Assay: C2Cl2 myotubes treated with IL-6
# Format: cell-based, mouse
# Experimental: FIG. 22A. Representative western blots from C2Cl2 myotubes treated with IL-6 (100 ng/ml) for different times (left panel). Fold-changes in the densities of proteins corrected for GAPDH at different times calculated from values at time zero (right panel), n=3 repeats; *p<0.05 vs. time zero. FIG. 22B. C2Cl2 myotubes were infected with a lentivirus expressing constitutively active Stat3 (Stat3C-GFP). A representative western blot for the indicated proteins is shown. FIG. 22C. C2Cl2 myotubes were treated with or without C188-9 for 2 h before adding IL-6 (100 ng/ml) for 24 h. A representative western blot for the indicated proteins is shown. FIG. 22D. C2Cl2 myoblasts were co-transfected with a plasmid expressing C/EBPδ promoter-driven luciferase, Renila plus a lentivirus expressing Stat3C-GFP and treated with or without IL-6. Dual luciferase activity was measured (n=3 repeats; *p<0.05 vs respective GFP control). FIG. 22E. C2Cl2 myoblasts were transfected with control siRNA or C/EBPδ siRNA and after differentiation to myotubes were treated with or without IL-6. Representative western blots of Stat3, C/EBPδ and myostatin are shown. FIG. 22F. C2Cl2 myoblasts were co-transfected with a plasmid expressing the myostatin promoter-driven luciferase plus plasmids (cDNA3 control, Stat3C, C/EBPδ, C/EBPδ siRNA or Stat3C plus C/EBPδ siRNA) and treated with or without IL6. Luciferase activity was measured (n=3 repeats; *p<0.05 vs. cDNA3 CTRL). FIG. 22G. C2Cl2 myoblasts were transfected with lentivirus expressing a siRNA to myostatin. […] In these cells, protein degradation (upper panel; n=6 repeats, #p<0.05 vs GFP control, *p<0.05 vs siRNA CTRL) was measured.
# C2Cl2 myotubes were treated with or without C188-9 for 1 or 24 h and RT-PCR was used to assess mRNA levels. […]
# C2Cl2 myotubes were treated with C188-9, a Stat3 inhibitor, for 2 h before adding IL-6 (100 ng/ml) for 24 h. Myotube sizes were measured (mean±SEM; n=3 independent experiments; *, p<0.05 vs. untreated myotubes).
# C2Cl2 myoblasts (ATCC, Manassas, Va.) were grown in high glucose Dulbecco's Modified Eagle's Medium (DMEM) supplemented with 10% FBS, 100 U/ml penicillin, […], […] sodium pyruvate and 2 mM L-glutamine. […] Myotube sizes were evaluated by NIS-element software. […] Alternatively, 2 μg plasmids expressing Stat3C or C/EBPδ or C/EBPδ promoter- or myostatin promoter-reporter luciferase construct were trasfected (control, Renilla) and luciferase activities was measured using the Promega assay (Madison, Wis.).
# Muscle samples (1 mg per 10 μl of RIPA buffer) or C2Cl2 myotubes were homogenized in RIPA buffer containing Complete Mini Protease Inhibitor and PhosStop Phosphatase Inhibitor (Roche Applied Science, Indianapolis, Ind.). […] The band density of target proteins was quantified using NIH ImageJ Software.
# [1] = C188-9 2 h before IL-6 100 ng/ml for 24 h
compound,measurement,setting,value
COc1ccc(S(=O)(=O)Nc2cc(-c3c(O)ccc4ccccc34)c(O)c3ccccc23)cc1 [C188-9],"IL-6-induced increase in p-Stat3, C/EBPδ and myostatin",[1],blocked these responses
same,decrease in myotubes size induced by IL-6,[1],prevented the decrease
same,C/EBPδ and myostatin mRNAs,IL-6-treated C2Cl2 myotubes,suppressed
same,p-Akt,IL-6-treated C2Cl2 myotubes,increased p-Akt

# From US11161831B2, “Methods and compositions for treatment of muscle wasting, muscle weakness, and/or cachexia” (Baylor College of Medicine, priority 2013, dated 2021)
